Test results as given in paper PMC5786788, “Antimicrobial Octapeptin C4 Analogues Active against Cryptococcus Species” (Antimicrobial Agents and Chemotherapy, 2018).
≈ marks a conversion by molar mass, not a printed value. Like-named read-outs stand apart in the source and are kept apart here. Where a SMILES comes first, the peptide text is derived from it. Bridges are numbered along the chain shown (N, C = ends). [ ]: non-standard residue; d: D form. The star is where a group is joined. Decanoyl(3R-OH) = CCCCCCC[C@@H](O)CC(=O)*; dDab = NCC[C@@H](N)C(=O)O; Dab = NCC[C@H](N)C(=O)O

Experiments:
[1] = system: C. neoformans H99 (cap59Δ); type: cell-based, Cryptococcus neoformans; details: Table 2; triplicate, values consistent across replicates
Text: The different susceptibility of C. neoformans and C. gattii to PMB compared to other pathogenic fungi such as C. albicans and A. fumigatus has been postulated to arise from differences in cell surface composition ([38]). One key difference is the presence of a negatively charged polysaccharide capsule in Cryptococcus spp. proposed to concentrate the cationic lipopeptides at the cell surface ([38]). To examine this potential interaction for the octapeptin series, a C. neoformans cap59Δ mutant strain deficient in the secretion of negatively charged glucuronoxylomannan (an α1–3-linked mannan containing β1,2 and β1,4 xylosyl substitutions, as well as β1,2-linked glucuronyl residues) ([41], [42]), was tested against octapeptin C4 in comparison to PMB.
(§1) Fungal strains were stored in 15% glycerol at −80°C until use. The fungal strains used were H99 (C. neoformans type strain) ([55]), cap59Δ (an acapsular H99 mutant) ([56]), ATCC 90113 (C. neoformans), MMRL 2651 (C. gattii), ATCC 90028 (Candida albicans), ATCC 90030 (Candida glabrata), ATCC 22019 (Candida parapsilosis), and ATCC MYA 3626 (Aspergillus fumigatus). Yeasts were cultured in liquid (1% yeast extract, 2% Bacto peptone, 2% glucose) or solid (additional 2% agar) yeast extract-peptone-dextrose (YPD) media at 30°C and maintained at 4°C for no longer than 2 weeks. A. fumigatus was prepared on potato dextrose medium at 30°C and maintained at 4°C for no longer than 2 weeks.
(§2) The MICs of the yeast strains for PMB, PME, and octapeptin C4 and its derivatives were determined in accordance with CLSI M27-A2 guidelines using YNB (Becton Dickinson, USA) medium supplemented with 10 mM ammonium sulfate and 2% glucose, a final inoculum concentration of 1.5 × 10^3 to 2.0 × 10^3 cells/ml, and incubation at 35°C for 72 h ([39]). […] The MICs for PMB, PME, and octapeptin C4 for A. fumigatus were determined in accordance with the CLSI M38-A2 guidelines ([40]) using synthetic RPMI 1640 medium (with glutamine, without bicarbonate and with phenol red; Life Technologies, USA). The final inoculum concentration was 0.4 × 10^4 to 5 × 10^4 cells/ml, with incubation at 35°C for 48 h. […] All assays were completed in triplicate. Fluconazole was used as a positive control where the MIC was determined at both 50% growth (in accordance with CLSI M27-A2 guidelines) and when there was a “no visible growth” reading.

C. gattii MMRL 2651 = system: C. gattii MMRL 2651
Method: (§3) A broth microdilution assay was initially used to characterize the antifungal activity of the cyclic lipopeptides ([39], [40]). […] common pathogenic yeasts (C. albicans, C. glabrata, C. parapsilosis, C. neoformans, and C. gattii) and one pathogenic mold (A. fumigatus) were tested to determine the MIC for each compound (Table 1) using broth microdilution. […] The only structural difference between these molecules is the presence of a phenylalanine residue at position 6 in PMB; in PME a D-leucine is present at this location (Fig. 1).
as §1, §2

C. neoformans ATCC 90113 = details: ATCC 90113, 72 h
Method: as §3, §1, §2

C. neoformans H99 = details: H99, 72 h
Method: as §3, §1, §2

[2] = system: C. neoformans var. grubii; assay: organism not typed
Method: The MICs of the yeast strains for PMB, PME, and octapeptin C4 and its derivatives were determined in accordance with CLSI M27-A2 guidelines using YNB (Becton Dickinson, USA) medium supplemented with 10 mM ammonium sulfate and 2% glucose, a final inoculum concentration of 1.5 × 10^3 to 2.0 × 10^3 cells/ml, and incubation at 35°C for 72 h ([39]). […] The MICs for PMB, PME, and octapeptin C4 for A. fumigatus were determined in accordance with the CLSI M38-A2 guidelines ([40]) using synthetic RPMI 1640 medium (with glutamine, without bicarbonate and with phenol red; Life Technologies, USA). The final inoculum concentration was 0.4 × 10^4 to 5 × 10^4 cells/ml, with incubation at 35°C for 48 h. […] All assays were completed in triplicate. Fluconazole was used as a positive control where the MIC was determined at both 50% growth (in accordance with CLSI M27-A2 guidelines) and when there was a “no visible growth” reading. […]

[3] = system: C. neoformans var. gattii; assay: microbe, parasite or virus in culture; details: no visible growth
Method: as §2

[4] = system: C. neoformans var. neoformans; assay: microbe, parasite or virus in culture; details: Cryptococcus neoformans, no visible growth
Method: as §2

Compound: CCCCCCC[C@@H](O)CC(=O)N[C@H](CCN)C(=O)N[C@H]1CCNC(=O)[C@H](C)NC(=O)[C@H](CCN)NC(=O)[C@H](CCN)NC(=O)[C@H](CC(C)C)NC(=O)[C@@H](Cc2ccccc2)NC(=O)[C@H](CCN)NC1=O [Compound P8] ({Decanoyl(3R-OH)}-[dDab][Dab][Dab][dF]L[Dab][Dab]A; lactam 2-C)
- MICs against various Cryptococcus strains: H99 (cap59Δ) [1]: 100 µg/mL
- MICs against various Cryptococcus strains: MMRL 2651 (C. gattii MMRL 2651; 72 h): 50.0 µg/mL
- MICs against various Cryptococcus strains: ATCC 90113 (C. neoformans ATCC 90113): 6.25 µg/mL
- MICs against various Cryptococcus strains: H99 (C. neoformans H99): 50.0 µg/mL

Compound: CCCCCCC[C@@H](O)CC(=O)N[C@@H](C)C(=O)N[C@H]1CCNC(=O)[C@H](CC(C)C)NC(=O)[C@H](CCN)NC(=O)[C@H](CCN)NC(=O)[C@H](CC(C)C)NC(=O)[C@@H](Cc2ccccc2)NC(=O)[C@H](CCN)NC1=O [Compound P1L] ({Decanoyl(3R-OH)}-A[Dab][Dab][dF]L[Dab][Dab]L; lactam 2-C)
- MICs against various Cryptococcus strains: H99 (cap59Δ) [1]: 25.0 µg/mL
- MICs against various Cryptococcus strains: MMRL 2651 (C. gattii MMRL 2651; 72 h): 12.5 µg/mL
- MICs against various Cryptococcus strains: ATCC 90113 (C. neoformans ATCC 90113): 12.5 µg/mL
- MICs against various Cryptococcus strains: H99 (C. neoformans H99): 12.5 µg/mL

Compound: CCCCCCC[C@@H](O)CC(=O)N[C@H](C)C(=O)N[C@H]1CCNC(=O)[C@H](CC(C)C)NC(=O)[C@H](CCN)NC(=O)[C@H](CCN)NC(=O)[C@H](CC(C)C)NC(=O)[C@@H](Cc2ccccc2)NC(=O)[C@H](CCN)NC1=O [Compound P1D] ({Decanoyl(3R-OH)}-[dA][Dab][Dab][dF]L[Dab][Dab]L; lactam 2-C)
- MICs against various Cryptococcus strains: H99 (cap59Δ) [1]: 12.5 µg/mL
- MICs against various Cryptococcus strains: MMRL 2651 (C. gattii MMRL 2651; Table 2, C. gattii, triplicate, values consistent across replicates): 12.5 µg/mL
- MICs against various Cryptococcus strains: ATCC 90113 (C. neoformans ATCC 90113): 6.25 µg/mL
- MICs against various Cryptococcus strains: H99 (C. neoformans H99): 6.25 µg/mL

Compound: C[C@@H]1[C@H](O)[C@@H](C)/C=C/C=C/C=C/C=C/C=C/C=C/C=C/[C@H](O[C@@H]2O[C@H](C)[C@@H](O)[C@H](N)[C@@H]2O)C[C@@H]2O[C@](O)(C[C@@H](O)C[C@@H](O)[C@H](O)CC[C@@H](O)C[C@@H](O)CC(=O)O[C@H]1C)C[C@H](O)[C@H]2C(=O)O [Amphotericin B, amphotericin B]
- MIC [2]: 3.13 µg/mL (≈ 3.39 µM)
- MIC ([2]; Cryptococcus neoformans): 3.13 µg/mL (≈ 3.39 µM)
- MIC ([2]; strain 486 (USA), no visible growth): 3.13 µg/mL (≈ 3.39 µM)
- MIC ([2]; strain 488 (AIDS+, pre-HAART USA), no visible growth): 3.13 µg/mL (≈ 3.39 µM)
- MIC ([2]; strain 490 (USA), no visible growth): 3.13 µg/mL (≈ 3.39 µM)
- MIC ([2]; strain 496 (USA), no visible growth): 3.13 µg/mL (≈ 3.39 µM)
- MIC ([2]; strain 500 (USA), no visible growth): 3.13 µg/mL (≈ 3.39 µM)
- MIC ([2]; strain 502 (ARR3+ USA), no visible growth): 3.13 µg/mL (≈ 3.39 µM)
- MIC ([2]; strain 505 (India), no visible growth): 3.13 µg/mL (≈ 3.39 µM)
- MIC ([2]; strain 507 (India), no visible growth): 3.13 µg/mL (≈ 3.39 µM)
- MIC ([2]; strain 510 (VNII India), no visible growth): 3.13 µg/mL (≈ 3.39 µM)
- MIC ([2]; strain 512 (India), no visible growth): 3.13 µg/mL (≈ 3.39 µM)
- MIC ([2]; strain 516 (India), no visible growth): 3.13 µg/mL (≈ 3.39 µM)
- MIC ([2]; strain 518 (VNI India), no visible growth): 3.13 µg/mL (≈ 3.39 µM)
- MIC ([2]; strain 522 (India), no visible growth): 3.13 µg/mL (≈ 3.39 µM)
- MIC ([2]; strain 525 (India), no visible growth): 3.13 µg/mL (≈ 3.39 µM)
- MIC ([2]; strain 1188 (Japan lung), no visible growth): 3.13 µg/mL (≈ 3.39 µM)
- MIC ([2]; strain 1194 (Italy), no visible growth): 3.13 µg/mL (≈ 3.39 µM)
- MIC ([2]; strain 1196 (Botswana CSF/AIDS), no visible growth): 3.13 µg/mL (≈ 3.39 µM)
- MIC ([2]; strain 1197 (Botswana CSF/AIDS), no visible growth): 3.13 µg/mL (≈ 3.39 µM)
- MIC ([2]; strain H99O (lab strain), no visible growth): 3.13 µg/mL (≈ 3.39 µM)
- MIC ([2]; strain H99 stud (lab strain), no visible growth): 3.13 µg/mL (≈ 3.39 µM)
- MIC ([3]; Cryptococcus neoformans, ATCC32269, strain ATCC 32269): 3.13 µg/mL (≈ 3.39 µM)
- MIC ([3]; Cryptococcus neoformans, ATCC32609, strain ATCC 32609 (NIH444)): 3.13 µg/mL (≈ 3.39 µM)
- MIC ([3]; Cryptococcus neoformans, ATCC34878, strain ATCC 34878): 3.13 µg/mL (≈ 3.39 µM)
- MIC ([3]; Cryptococcus neoformans, ATCC34882, strain ATCC 34882): 3.13 µg/mL (≈ 3.39 µM)
- MIC ([3]; Cryptococcus neoformans, strain 93/980 (CSF France)): 3.13 µg/mL (≈ 3.39 µM)
- MIC ([3]; Cryptococcus neoformans, strain 94/943-6 (CSF Mexico)): 3.13 µg/mL (≈ 3.39 µM)
- MIC ([3]; Cryptococcus neoformans, strain 94/943-8 (CSF Mexico)): 3.13 µg/mL (≈ 3.39 µM)
- MIC ([3]; Cryptococcus neoformans, strain R270 (Vancouver Island)): 12.5 µg/mL (≈ 13.5 µM)
- MIC ([3]; strain 96/1120-2 (CSF HIV2 France)): 12.5 µg/mL (≈ 13.5 µM)
- MIC ([4]; strain WM 01.127 (USA)): 3.13 µg/mL (≈ 3.39 µM)
- MIC ([4]; strain WM 02.141 (Russia)): 3.13 µg/mL (≈ 3.39 µM)
- MIC ([4]; strain WM 02.143 (Russia)): 3.13 µg/mL (≈ 3.39 µM)
- MIC ([4]; strain WM 02.37 (Canada)): 3.13 µg/mL (≈ 3.39 µM)
- MIC ([4]; strain WM 04.168 (Chile)): 3.13 µg/mL (≈ 3.39 µM)
- MIC ([4]; strain WM 04.171 (Thailand, environmental)): 3.13 µg/mL (≈ 3.39 µM)
- MIC ([4]; strain WM 05.467 (Brazil, environmental)): 3.13 µg/mL (≈ 3.39 µM)
- MIC ([4]; strain WM 05.515 (Peru)): 3.13 µg/mL (≈ 3.39 µM)
- MIC ([4]; strain WM 09.109 (Italy, environmental)): 3.13 µg/mL (≈ 3.39 µM)
- MIC ([4]; strain WM 09.112 (USA)): 3.13 µg/mL (≈ 3.39 µM)
- MIC ([4]; strain WM 10.119 (Australia)): 3.13 µg/mL (≈ 3.39 µM)
- MIC ([4]; strain WM 629 (Australia)): 3.13 µg/mL (≈ 3.39 µM)
- MIC ([4]; strain WM 1706 (Argentina)): 3.13 µg/mL (≈ 3.39 µM)
- MIC ([4]; strain WM 1740 (Chile)): 3.13 µg/mL (≈ 3.39 µM)
- MIC ([4]; strain WM 2207 (USA, environmental)): 3.13 µg/mL (≈ 3.39 µM)
- MIC ([4]; strain WM 2242 (USA)): 3.13 µg/mL (≈ 3.39 µM)
- MIC ([4]; strain WM 2530 (USA)): 3.13 µg/mL (≈ 3.39 µM)
